Experiments:
[1] = system: spontaneously hypertensive rats; assay: decrease in systolic blood pressure of spontaneously hypertensive rats; type: in vivo, rat
[2] = system: arterial actin-myosin interactions; assay: inhibition of superprecipitation (antagonism of arterial actin-myosin interaction); type: biochemical; settings: six minute time-point, mean±SEM
Description: (§1) The data reported herein was obtained at a six minute time-point rather than the 1.5, 5 and 12 minute time points indicated in the superprecipitation assay of the Silver et al. paper.
(§2) The following examples illustrate the preparation of a representative number of compounds of this invention. After each example, and Ca^+2 antagonist activity of the compound is presented in terms of percent relaxation of aortic tissue (P.R.) at 10^-5 M concentration. […] Inhibition of superprecipitation (Antag. of Actin-Myosin interaction) is expressed as percent inhibition (mean±standard error of the mean for at least 3 separate experiments) at a compound concentration. In the same manner, inhibition of myosin light chain phosphorylation (Antag. of MLCP) is expressed as a percent inhibition at a compound concentration. Similarly, the antihypertensive activity is reported in terms of millimeters mercury (mmHg) systolic blood pressure (B.P.) reduction at the stated time post 50 mg/kg oral dosing or other dosing as indicated.

[3] = system: Ca^+2 -calmodulin dependent myosin light chain phosphorylation; assay: inhibition of Ca^+2-calmodulin dependent myosin light chain phosphorylation (MLCP); type: biochemical
Description: as §1, §2

SMILES: CC1=C(C(=O)OCCOc2ccccc2)C(c2c(F)c(F)c(F)c(F)c2F)C2=C(CNCC2=O)N1 (racemic) [Example 2, 1,4,5,6,7,8-Hexahydro-2-methyl-5-oxo-4-(pentafluorophenyl)-1,7-naphthyridine-3-carboxylic acid 2-phenoxyethyl ester]
- systolic blood pressure (B.P.) reduction ([1]; 10 mg/kg, 4 hours): -51 mmHg
- inhibition of superprecipitation (Antag. of Actin-Myosin) ([2]; 25 μM): 28±2%
- inhibition of superprecipitation (Antag. of Actin-Myosin) ([2]; 50 μM): 58±4%
- inhibition of superprecipitation (Antag. of Actin-Myosin) ([2]; 100 μM): 72±2%
- inhibition of myosin light chain phosphorylation (Antag. of MLCP) ([3]; 25 μM): 24±3%
- inhibition of myosin light chain phosphorylation (Antag. of MLCP) ([3]; 50 μM): 54±4%
- inhibition of myosin light chain phosphorylation (Antag. of MLCP) ([3]; 100 μM): 69±3%

SMILES: CO[C@H](COC(=O)C1=C(C)NC2=C(C(=O)CNC2)C1c1c(F)c(F)c(F)c(F)c1F)c1ccccc1 (single isomer, unassigned) [Example 8 Diastereomer A, 1,4,5,6,7,8-Hexahydro-2-methyl-5-oxo-4(R or S-pentafluorophenyl)-1,7-naphthyridine-3-carboxylic acid (S)-2-methoxy-2-phenylethyl esters]
- inhibition of superprecipitation (Antag. of Actin-Myosin) ([2]; 50 μM): 28%
- inhibition of superprecipitation (Antag. of Actin-Myosin) ([2]; 100 μM): 69%
- inhibition of myosin light chain phosphorylation (Antag. of MLCP) ([3]; 50 μM): 28%
- inhibition of myosin light chain phosphorylation (Antag. of MLCP) ([3]; 100 μM): 63%

SMILES: CO[C@H](COC(=O)C1=C(C)NC2=C(C(=O)CNC2)C1c1c(F)c(F)c(F)c(F)c1F)c1ccccc1 (single isomer, unassigned) [Example 8 Diastereomer B, 1,4,5,6,7,8-Hexahydro-2-methyl-5-oxo-4(R or S-pentafluorophenyl)-1,7-naphthyridine-3-carboxylic acid (S)-2-methoxy-2-phenylethyl esters]
- inhibition of superprecipitation (Antag. of Actin-Myosin) ([2]; 50 μM): 30%
- inhibition of superprecipitation (Antag. of Actin-Myosin) ([2]; 100 μM): 64%
- inhibition of myosin light chain phosphorylation (Antag. of MLCP) ([3]; 50 μM): 34%
- inhibition of myosin light chain phosphorylation (Antag. of MLCP) ([3]; 100 μM): 62%

SMILES: CC1=C(C(=O)OCCOc2ccccc2)C(c2c(F)c(F)c(F)c(F)c2F)C2=C(CNCC2=O)N1 (single isomer, unassigned; (-)) [Example 3, (-)-1,4,5,6,7,8-Hexahydro-2-methyl-5-oxo-4-(pentafluorophenyl)-1,7-naphthyridine-3-carboxylic acid 2-phenoxyethyl ester]
- inhibition of superprecipitation (Antag. of Actin-Myosin) ([2]; 50 μM): 65%
- inhibition of superprecipitation (Antag. of Actin-Myosin) ([2]; 100 μM): 76%
- inhibition of myosin light chain phosphorylation (Antag. of MLCP) ([3]; 50 μM): 57%
- inhibition of myosin light chain phosphorylation (Antag. of MLCP) ([3]; 100 μM): 70%

SMILES: COC(COC(=O)C1=C(C)NC2=C(C(=O)CNC2)C1c1cccc(Cl)c1Cl)c1ccccc1 (centres unmarked) [Example 1, 4-(2,3-Dichlorophenyl)-1,4,5,6,7,8-hexahydro-2-methyl-5-oxo-1,7-naphthyridine-3-carboxylic acid 2-methoxy-2-phenylethyl ester]
- systolic blood pressure (B.P.) reduction ([1]; 50 mg/kg oral, 1.5 hours): -53 mmHg
- systolic blood pressure (B.P.) reduction ([1]; 50 mg/kg oral, 4 hours): -30 mmHg
- inhibition of superprecipitation (Antag. of Actin-Myosin) ([2]; 25 μM): 43±2%
- inhibition of superprecipitation (Antag. of Actin-Myosin) ([2]; 50 μM): 75±3%
- inhibition of superprecipitation (Antag. of Actin-Myosin) ([2]; 100 μM): 83±3%
- inhibition of myosin light chain phosphorylation (Antag. of MLCP) ([3]; 25 μM): 38±3%
- inhibition of myosin light chain phosphorylation (Antag. of MLCP) ([3]; 50 μM): 66%
- inhibition of myosin light chain phosphorylation (Antag. of MLCP) ([3]; 100 μM): 76±2%

SMILES: CO[C@@H](COC(=O)C1=C(C)NC2=C(C(=O)CNC2)C1c1c(F)c(F)c(F)c(F)c1F)c1ccccc1 (stereo partly drawn) [Example 6, 1,4,5,6,7,8-Hexahydro-2-methyl-5-oxo-4-(pentafluorophenyl)-1,7-naphthyridine-3-carboxylic acid (R)-2-methoxy-2-phenylethyl ester]
- systolic blood pressure (B.P.) reduction ([1]; 10 mg/kg, 1.5 hours): -56 mmHg
- systolic blood pressure (B.P.) reduction ([1]; 10 mg/kg, 4 hours): -49 mmHg
- inhibition of superprecipitation (Antag. of Actin-Myosin) ([2]; 50 μM): 64%
- inhibition of superprecipitation (Antag. of Actin-Myosin) ([2]; 100 μM): 74%
- inhibition of myosin light chain phosphorylation (Antag. of MLCP) ([3]; 50 μM): 56%
- inhibition of myosin light chain phosphorylation (Antag. of MLCP) ([3]; 100 μM): 70%

SMILES: COC(COC(=O)C1=C(C)NC2=C(C(=O)CNC2)C1c1c(F)cccc1Cl)c1ccccc1 (centres unmarked) [Example 9, 4-(2-Chloro-6-fluorophenyl)-1,4,5,6,7,8-hexahydro-2-methyl-5-oxo-1,7-naphthyridine-3-carboxylic acid 2-methoxy-2-phenylethyl ester]
- systolic blood pressure (B.P.) reduction ([1]; 50 mg/kg oral, 1.5 hours): -37 mmHg
- systolic blood pressure (B.P.) reduction ([1]; 50 mg/kg oral, 4 hours): -14 mmHg
- inhibition of superprecipitation (Antag. of Actin-Myosin) ([2]; 100 μM): 40%
- inhibition of myosin light chain phosphorylation (Antag. of MLCP) ([3]; 100 μM): 44%

SMILES: COC(COC(=O)C1=C(C)NC2=C(C(=O)CNC2)C1c1cccc(Cl)c1)c1ccccc1 (centres unmarked) [Example 11, 4-(3-Chlorophenyl)-1,4,5,6,7,8-hexahydro-2-methyl-5-oxo-1,7 naphthyridine-3-carboxylic acid 2-methoxy-2-phenylethyl ester]
- systolic blood pressure (B.P.) reduction ([1]; 50 mg/kg oral, 1.5 hours): -29 mmHg
- systolic blood pressure (B.P.) reduction ([1]; 50 mg/kg oral, 4 hours): -38 mmHg
- inhibition of superprecipitation (Antag. of Actin-Myosin) ([2]; 100 μM): 53%
- inhibition of myosin light chain phosphorylation (Antag. of MLCP) ([3]; 100 μM): 48%

SMILES: COC(COC(=O)C1=C(C)NC2=C(C(=O)CNC2)C1c1ccccc1C(F)(F)F)c1ccccc1 (centres unmarked) [Example 12, 1,4,5,6,7,8-Hexahydro-2-methyl-5-oxo-4-[2-(trifluoromethyl)phenyl]-1,7-naphthyridine-3-carboxylic acid 2-methoxy-2-phenylethyl ester]
- systolic blood pressure (B.P.) reduction ([1]; 25 mg/kg, 1.5 hours): -56 mmHg
- systolic blood pressure (B.P.) reduction ([1]; 25 mg/kg, 4 hours): -56 mmHg
- inhibition of superprecipitation (Antag. of Actin-Myosin) ([2]; 100 μM): 30%
- inhibition of myosin light chain phosphorylation (Antag. of MLCP) ([3]; 100 μM): 24%

SMILES: CC1=C(C(=O)OC(C)COc2ccccc2)C(c2c(F)c(F)c(F)c(F)c2F)C2=C(CNCC2=O)N1 (centres unmarked) [Example 13, 1,4,5,6,7,8-Hexahydro-2-methyl-5-oxo-4-(pentafluorophenyl)-1,7-naphthyridine-3-carboxylic acid 1-methyl-2-phenoxyethyl ester]
- systolic blood pressure (B.P.) reduction ([1]; 50 mg/kg oral, 1.5 hours): -35 mmHg
- systolic blood pressure (B.P.) reduction ([1]; 50 mg/kg oral, 4 hours): -60 mmHg
- inhibition of superprecipitation (Antag. of Actin-Myosin) ([2]; 25 μM): 61%
- inhibition of superprecipitation (Antag. of Actin-Myosin) ([2]; 100 μM): 78%
- inhibition of myosin light chain phosphorylation (Antag. of MLCP) ([3]; 25 μM): 58%
- inhibition of myosin light chain phosphorylation (Antag. of MLCP) ([3]; 100 μM): 70%

SMILES: CC1=C(C(=O)OCC2COc3ccccc3O2)C(c2c(F)c(F)c(F)c(F)c2F)C2=C(CNCC2=O)N1 (centres unmarked) [Example 14, 1,4,5,6,7,8-Hexahydro-2-methyl-5-oxo-4-(pentafluorophenyl)-1,7-naphthyridine-3-carboxylic acid 2,3-dihydro-1,4-benzodioxin-2-ylmethyl ester]
- systolic blood pressure (B.P.) reduction ([1]; 50 mg/kg oral, 1.5 hours): -46 mmHg
- systolic blood pressure (B.P.) reduction ([1]; 50 mg/kg oral, 4 hours): -42 mmHg
- inhibition of superprecipitation (Antag. of Actin-Myosin) ([2]; 25 μM): 65%
- inhibition of superprecipitation (Antag. of Actin-Myosin) ([2]; 100 μM): 80%
- inhibition of myosin light chain phosphorylation (Antag. of MLCP) ([3]; 25 μM): 59%
- inhibition of myosin light chain phosphorylation (Antag. of MLCP) ([3]; 100 μM): 76%

SMILES: CC1=C(C(=O)OCCOc2ccccc2)C(c2ccccc2C)C2=C(CNCC2=O)N1 (centres unmarked) [Example 15, 1,4,5,6,7,8-Hexahydro-2-methyl-4-(2-methylphenyl)-5-oxo-1,7-naphthyridine-3-carboxylic acid 2-phenoxyethyl ester]
- systolic blood pressure (B.P.) reduction ([1]; 25 mg/kg, 1.5 hours): -29 mmHg
- systolic blood pressure (B.P.) reduction ([1]; 25 mg/kg, 4 hours): -39 mmHg
- inhibition of superprecipitation (Antag. of Actin-Myosin) ([2]; 100 μM): 66±5%
- inhibition of myosin light chain phosphorylation (Antag. of MLCP) ([3]; 100 μM): 61±5%

SMILES: CC1=C(C(=O)OCCOc2ccccc2)C(c2c(F)ccc(F)c2F)C2=C(CNCC2=O)N1 (centres unmarked) [Example 16, 1,4,5,6,7,8-Hexahydro-2-methyl-5-oxo-4-(2,3,6-trifluorophenyl)-1,7-naphthyrdine-3-carboxylic acid 2-phenoxyethyl ester]
- systolic blood pressure (B.P.) reduction ([1]; 25 mg/kg, 4 hours): -18 mmHg
- inhibition of superprecipitation (Antag. of Actin-Myosin) ([2]; 100 μM): 34%
- inhibition of myosin light chain phosphorylation (Antag. of MLCP) ([3]; 100 μM): 28%

SMILES: CC1=C(C(=O)OCCc2ccccc2)C(c2c(F)c(F)c(F)c(F)c2F)C2=C(CNCC2=O)N1 (centres unmarked) [Example 18, 1,4,5,6,7,8-Hexahydro-2-methyl-5-oxo-4-(pentafluorophenyl)-1,7-naphthyridine-3-carboxylic acid 2-phenylethyl ester]
- systolic blood pressure (B.P.) reduction ([1]; 10 mg/kg, 1.5 hours): -27 mmHg
- systolic blood pressure (B.P.) reduction ([1]; 10 mg/kg, 4 hours): -24 mmHg
- inhibition of superprecipitation (Antag. of Actin-Myosin) ([2]; 25 μM): 42%
- inhibition of superprecipitation (Antag. of Actin-Myosin) ([2]; 50 μM): 65%
- inhibition of superprecipitation (Antag. of Actin-Myosin) ([2]; 100 μM): 78±2%
- inhibition of myosin light chain phosphorylation (Antag. of MLCP) ([3]; 25 μM): 35%
- inhibition of myosin light chain phosphorylation (Antag. of MLCP) ([3]; 50 μM): 64%
- inhibition of myosin light chain phosphorylation (Antag. of MLCP) ([3]; 100 μM): 77±3%

SMILES: CC1=C(C(=O)OCCOc2ccccc2)C(c2cccc(Cl)c2Cl)C2=C(CNCC2=O)N1.Cl (centres unmarked) [Example 19, 4-(2,3-Dichlorophenyl)-1,4,5,6,7,8-hexahydro-2-methyl-5-oxo-1,7-naphthyridine-3-carboxylic acid 2-phenoxyethyl ester, hydrochloride]
- systolic blood pressure (B.P.) reduction ([1]; 50 mg/kg oral, 1.5 hours): -50 mmHg
- systolic blood pressure (B.P.) reduction ([1]; 50 mg/kg oral, 4 hours): -73 mmHg
- inhibition of superprecipitation (Antag. of Actin-Myosin) ([2]; 100 μM): 71%
- inhibition of myosin light chain phosphorylation (Antag. of MLCP) ([3]; 100 μM): 69%

SMILES: CC1=C(C(=O)OCC(C)(C)Oc2ccccc2)C(c2c(F)c(F)c(F)c(F)c2F)C2=C(CNCC2=O)N1.Cl (centres unmarked) [Example 20, 1,4,5,6,7,8-Hexahydro-2-methyl-5-oxo-4-(pentafluorophenyl)-1,7-naphthyridine-3-carboxylic acid 2-methyl-2-phenoxypropyl ester, hydrochloride]
- systolic blood pressure (B.P.) reduction ([1]; 25 mg/kg, 1.5 hours): -64 mmHg
- systolic blood pressure (B.P.) reduction ([1]; 25 mg/kg, 4 hours): -41 mmHg
- inhibition of superprecipitation (Antag. of Actin-Myosin) ([2]; 100 μM): 67%
- inhibition of myosin light chain phosphorylation (Antag. of MLCP) ([3]; 100 μM): 62%
